In brackets after ≈: the same amount, converted by molar mass. Several values for one entry are separate records, joined by “and”; a condition that tells them apart may be missing. Equal values may be shown once. Entries after “also recorded” stand apart in the source; their conditions may differ. Read-outs that look alike come from different tables or passages of the source.
Legend:
E. coli DNA gyrase [1] = target: T1, E. coli DNA gyrase (Escherichia coli (strain K12), UniProt P0AES4+P0AES6); assay: Agarose gel-based DNA gyrase inhibition assay; assay type: biochemical
Procedure: 100 ng of DNA gyrase was used to supercoil the rx pAB1 in the presence of different concentrations of a gyrase inhibitor. […] Samples were analyzed by electrophoresis in 1% w/v agarose gels followed by ethidium bromide staining and photographed under UV light.

E. coli DNA gyrase [2] = target: T1, E. coli DNA gyrase; assay: SDFQ-based DNA gyrase inhibition assay; assay type: biochemical
Procedure: 100 ng of DNA gyrase was used to supercoil the rx pAB1_FL905 in the presence of different concentrations of a gyrase inhibitor. […] The IC50 values were estimated by nonlinear fitting of the following equation: […]
where F is the fluorescence intensity at the x concentration of an min inhibitor. Fmax and Fmin are the maximum and minimum fluorescence of the DNA sample, respectively. P is a slope parameter.

E. coli DNA gyrase [3] = target: T1, E. coli DNA gyrase; assay: biochemical; assay type: biochemical
[4] = target: human DNA topoisomerase IIα (Homo sapiens (Human), UniProt P11388); assay: Agarose gel-based inhibition assay against human DNA topoisomerase IIα; assay type: biochemical; conditions: for inhibition of human DNA topoisomerase IIα: gallates at 100 µM
Sequence of human DNA topoisomerase IIα (P11388 whole entry): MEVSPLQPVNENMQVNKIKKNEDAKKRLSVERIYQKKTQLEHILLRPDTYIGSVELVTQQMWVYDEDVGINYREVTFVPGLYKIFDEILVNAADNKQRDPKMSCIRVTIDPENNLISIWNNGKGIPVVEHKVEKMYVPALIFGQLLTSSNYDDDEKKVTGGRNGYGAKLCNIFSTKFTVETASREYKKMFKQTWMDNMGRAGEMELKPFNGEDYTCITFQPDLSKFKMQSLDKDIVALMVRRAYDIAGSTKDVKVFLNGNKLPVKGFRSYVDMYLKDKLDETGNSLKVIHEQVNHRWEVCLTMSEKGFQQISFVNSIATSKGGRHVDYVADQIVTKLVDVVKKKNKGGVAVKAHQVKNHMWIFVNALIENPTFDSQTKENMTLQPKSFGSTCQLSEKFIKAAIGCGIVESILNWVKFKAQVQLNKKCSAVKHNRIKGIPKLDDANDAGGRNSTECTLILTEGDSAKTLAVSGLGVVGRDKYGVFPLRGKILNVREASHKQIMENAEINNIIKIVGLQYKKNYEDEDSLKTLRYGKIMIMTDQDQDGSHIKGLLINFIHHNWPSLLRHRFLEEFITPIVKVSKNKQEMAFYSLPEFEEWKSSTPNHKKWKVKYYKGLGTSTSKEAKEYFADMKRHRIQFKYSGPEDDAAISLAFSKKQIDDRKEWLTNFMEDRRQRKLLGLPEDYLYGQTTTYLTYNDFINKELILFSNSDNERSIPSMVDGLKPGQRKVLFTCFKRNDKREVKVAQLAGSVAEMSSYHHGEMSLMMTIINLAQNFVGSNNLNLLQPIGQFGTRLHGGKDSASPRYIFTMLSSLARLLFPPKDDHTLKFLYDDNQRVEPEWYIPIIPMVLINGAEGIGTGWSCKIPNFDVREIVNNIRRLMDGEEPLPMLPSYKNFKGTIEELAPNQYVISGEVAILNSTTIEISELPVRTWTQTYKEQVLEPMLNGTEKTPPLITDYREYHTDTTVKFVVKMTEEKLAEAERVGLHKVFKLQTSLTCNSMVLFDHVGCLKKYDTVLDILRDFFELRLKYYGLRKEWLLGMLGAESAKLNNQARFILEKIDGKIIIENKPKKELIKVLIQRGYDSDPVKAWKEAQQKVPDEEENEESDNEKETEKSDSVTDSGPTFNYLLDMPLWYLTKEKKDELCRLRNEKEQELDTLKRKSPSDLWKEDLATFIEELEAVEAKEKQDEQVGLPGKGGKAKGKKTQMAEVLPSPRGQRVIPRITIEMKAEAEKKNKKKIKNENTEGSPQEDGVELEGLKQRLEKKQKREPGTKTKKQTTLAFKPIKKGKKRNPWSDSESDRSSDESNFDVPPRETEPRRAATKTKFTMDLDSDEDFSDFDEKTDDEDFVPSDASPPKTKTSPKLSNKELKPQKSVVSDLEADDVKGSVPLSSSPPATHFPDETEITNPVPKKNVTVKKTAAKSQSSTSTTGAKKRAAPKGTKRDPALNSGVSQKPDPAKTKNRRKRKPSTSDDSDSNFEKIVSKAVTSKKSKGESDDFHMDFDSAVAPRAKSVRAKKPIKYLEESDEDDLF

E. coli DNA gyrase [5] = target: T1, E. coli DNA gyrase; assay: DNA gyrase mediated DNA cleavage assay; assay type: biochemical; conditions: pBR322
Procedure: 250 ng of supercoiled pBR322 plasmid were incubated with 50 nM of E. coli DNA gyrase in reactions containing 35 mM Tris-HCl, 24 mM KCl, 4 mM MgCl2, 2 mM DTT, 0.1 mg/mL BSA, 6.5% glycerol, and 1.75 mM ATP, in presence of 200 µM of compounds, at 37° C. for 15 min. Then, 0.2% (w/v) of SDS and 0.1 mg/mL proteinase K were added, and samples were incubated at 37° C. for 1 h. […] Samples were examined by electrophoresis in 1% w/v agarose gel containing 0.5 µg/mL ethidium bromide and photographed under UV light.

[6] = target: human DNA topoisomerase 2α (Homo sapiens (Human), UniProt P11388); assay: Human DNA topoisomerase 2α-mediated DNA cleavage assay; assay type: biochemical; conditions: pBR322
Sequence of human DNA topoisomerase 2α (P11388 whole entry): as above

B. subtilis (ATCC 6633) = assay: Minimum inhibitory concentration, broth microdilution; conditions: for MIC: Bacillus subtilis
Procedure: (§2) Antibacterial minimum inhibitory concentrations (MICs) were obtained from three independent experiments using broth microdilution methods in 96-well plates according to Clinical and Laboratory Standards Institute guidelines. Cells were culture from singles colonies in MHIIB medium for 24 h at 37° C. in agitation (200 RPM). The cultures were then diluted using the same media to reach an OD600 of 0.1. Then, 50 µL of the diluted cultures were added to the plates holding 50 µL of serially diluted compounds in MHIIB. The plates were incubated at 37° C. for 20 h. The starting inoculum was fixated to 10^5 colony-forming units per ml.

Mtb DNA gyrase = Mtb DNA gyrase (Mycobacterium tuberculosis (strain ATCC 25618 / H37Rv), UniProt P9WG45+P9WG47); assay: Mtb DNA gyrase inhibition assay (gel-based); assay type: biochemical; conditions: for IC50: Table 5, Mtb gyrase, read-out: IC50 (µM) Mtb
In short: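 Supercoiling by 100 ng Mtb gyrase of 400 ng relaxed pAB1 in buffer with 1.75 mM ATP, pH 7.5, across inhibitor concentrations. Reactions ran 15 min at 37° C, stopped with SDS/EDTA. Products resolved on 1% agarose, ethidium bromide-stained; IC50 determined from gels.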

Mtb = Mtb whole cell assay (% inhibition, MIC); assay type: cell-based, Mycobacterium tuberculosis; conditions: for inhibition at 20 µM: Mycobacterium tuberculosis, Table 5 (same values in Table 6 at 20 µM)
J774 = conditions: 200 µM
in vitro [7] = conditions: mouse
in vitro [8] = conditions: human
S. aureus (ATCC 14775) = assay: Minimum inhibitory concentration, broth microdilution; conditions: for MIC: Staphylococcus aureus
Procedure: as §2

MRSA = assay: as above; conditions: for MIC: Staphylococcus aureus
Procedure: as §2

[9] = target: T2, E. coli DNA topoisomerase IV (Escherichia coli (strain K12), UniProt P0AFI2+P20083); assay: E. coli DNA topoisomerase IV relaxation assay (gel-based); assay type: biochemical
T2 sequence (P0AFI2 whole entry, looked up): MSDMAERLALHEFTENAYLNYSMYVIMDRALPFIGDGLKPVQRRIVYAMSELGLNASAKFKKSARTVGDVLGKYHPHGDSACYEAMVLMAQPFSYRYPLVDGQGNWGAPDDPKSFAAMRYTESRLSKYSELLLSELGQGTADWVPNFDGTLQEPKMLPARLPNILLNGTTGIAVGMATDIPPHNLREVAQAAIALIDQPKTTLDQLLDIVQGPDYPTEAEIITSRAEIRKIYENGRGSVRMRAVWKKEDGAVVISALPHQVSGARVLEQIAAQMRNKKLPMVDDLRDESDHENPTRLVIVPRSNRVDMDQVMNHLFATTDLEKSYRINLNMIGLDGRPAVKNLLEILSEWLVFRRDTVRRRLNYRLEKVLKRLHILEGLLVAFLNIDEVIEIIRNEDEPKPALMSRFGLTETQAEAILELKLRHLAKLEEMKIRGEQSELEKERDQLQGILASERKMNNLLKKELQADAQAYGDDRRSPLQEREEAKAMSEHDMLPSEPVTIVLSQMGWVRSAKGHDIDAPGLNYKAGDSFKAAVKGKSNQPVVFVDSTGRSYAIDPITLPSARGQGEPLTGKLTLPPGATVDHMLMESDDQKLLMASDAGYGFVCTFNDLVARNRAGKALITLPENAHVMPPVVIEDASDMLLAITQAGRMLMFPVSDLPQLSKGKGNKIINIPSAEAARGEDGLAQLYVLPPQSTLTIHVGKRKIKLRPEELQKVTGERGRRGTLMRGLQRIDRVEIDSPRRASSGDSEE
T2 sequence (P20083 whole entry, looked up): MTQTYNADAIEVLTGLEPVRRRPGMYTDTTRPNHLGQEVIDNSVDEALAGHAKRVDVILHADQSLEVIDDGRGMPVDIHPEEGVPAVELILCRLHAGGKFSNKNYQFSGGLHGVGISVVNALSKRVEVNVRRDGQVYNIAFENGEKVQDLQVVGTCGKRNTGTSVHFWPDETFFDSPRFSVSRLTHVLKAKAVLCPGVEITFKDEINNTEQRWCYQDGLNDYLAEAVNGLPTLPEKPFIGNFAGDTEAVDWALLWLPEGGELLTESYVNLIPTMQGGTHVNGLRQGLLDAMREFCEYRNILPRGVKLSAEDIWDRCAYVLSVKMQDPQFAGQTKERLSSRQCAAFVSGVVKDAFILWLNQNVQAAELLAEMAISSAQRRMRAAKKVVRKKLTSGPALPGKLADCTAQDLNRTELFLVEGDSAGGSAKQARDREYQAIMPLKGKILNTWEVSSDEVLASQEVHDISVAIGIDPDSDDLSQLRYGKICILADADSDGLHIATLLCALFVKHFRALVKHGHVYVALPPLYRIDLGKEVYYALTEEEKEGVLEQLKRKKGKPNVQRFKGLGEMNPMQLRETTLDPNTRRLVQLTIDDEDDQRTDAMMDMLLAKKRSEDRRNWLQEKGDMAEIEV
Procedure: (§1) Relaxation assays by E. coli DNA topoisomerase IV and the ATPase assays were performed. […] Lane 1 is supercoiled plasmid pAB1. […] The supercoiled, fluorescently-labeled plasmid pAB1_FL905 was used.

E. coli (ATCC 25922) = assay: Minimum inhibitory concentration, broth microdilution; conditions: for MIC: Escherichia coli
E. coli DNA gyrase [10] = target: T1, E. coli DNA gyrase; assay: E. coli DNA gyrase ATPase assay; assay type: biochemical
Procedure: E. coli DNA gyrase ATPase assays were performed in 60 µL of 1 ×gyrase ATPase buffer (10 mM Tris.HCl (pH 7.5), 0.2 mM EDTA, 1 mM magnesium chloride, 1 mM DTT, and 2% (w/v) glycerol) containing 50 nM E. coli DNA gyrase, 200 ng rx pAB1, 0.8 mM Phosphoenol pyruvate, 1.2 units of Pyruvate kinase, 1.7 units of lactate dehydrogenase, and 0.4 mM of NADH at 37° C. After the reaction mixtures are incubated on ice for 5 minutes, 2 mM of ATP is added to initiate the reaction. Absorbance at OD340nm is monitored for up to 30 minutes at 37° C. in a spectrophotometer.

[11] = target: E. coli DNA topoisomerase I (Escherichia coli (strain K12), UniProt P06612); assay: E. coli DNA topoisomerase I inhibition; assay type: biochemical; conditions: gallates at 100 µM
Sequence of E. coli DNA topoisomerase I (P06612 whole entry, looked up): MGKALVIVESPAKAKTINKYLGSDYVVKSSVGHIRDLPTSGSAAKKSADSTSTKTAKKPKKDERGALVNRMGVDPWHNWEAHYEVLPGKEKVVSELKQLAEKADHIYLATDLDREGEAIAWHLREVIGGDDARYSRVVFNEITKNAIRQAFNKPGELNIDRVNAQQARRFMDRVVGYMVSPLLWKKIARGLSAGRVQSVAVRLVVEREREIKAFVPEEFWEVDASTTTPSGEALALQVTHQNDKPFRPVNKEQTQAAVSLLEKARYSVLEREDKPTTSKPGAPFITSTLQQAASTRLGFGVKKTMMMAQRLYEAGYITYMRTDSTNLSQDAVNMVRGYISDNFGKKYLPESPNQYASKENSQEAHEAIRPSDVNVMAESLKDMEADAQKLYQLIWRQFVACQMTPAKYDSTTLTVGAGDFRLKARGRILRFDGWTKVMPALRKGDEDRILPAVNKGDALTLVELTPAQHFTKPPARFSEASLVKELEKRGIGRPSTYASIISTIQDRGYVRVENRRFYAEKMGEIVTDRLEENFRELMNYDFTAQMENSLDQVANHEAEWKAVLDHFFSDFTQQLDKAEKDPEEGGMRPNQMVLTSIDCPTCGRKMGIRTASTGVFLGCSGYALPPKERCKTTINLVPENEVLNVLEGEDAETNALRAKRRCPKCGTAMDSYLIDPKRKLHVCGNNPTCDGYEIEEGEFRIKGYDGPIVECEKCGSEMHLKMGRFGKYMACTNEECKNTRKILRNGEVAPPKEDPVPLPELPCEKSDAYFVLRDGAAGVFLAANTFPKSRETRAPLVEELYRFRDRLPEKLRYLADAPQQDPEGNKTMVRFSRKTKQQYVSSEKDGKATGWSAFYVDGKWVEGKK

[12] = target: T2, E. coli DNA topoisomerase IV; assay: SDFQ-based DNA relaxation assay with E. coli DNA topoisomerase IV; assay type: biochemical
Procedure: as §1

[13] = target: human DNA topoisomerase I (Homo sapiens (Human), UniProt P11387); assay: Human DNA topoisomerase I inhibition; assay type: biochemical; conditions: gallates at 100 µM
Sequence of human DNA topoisomerase I (P11387 whole entry): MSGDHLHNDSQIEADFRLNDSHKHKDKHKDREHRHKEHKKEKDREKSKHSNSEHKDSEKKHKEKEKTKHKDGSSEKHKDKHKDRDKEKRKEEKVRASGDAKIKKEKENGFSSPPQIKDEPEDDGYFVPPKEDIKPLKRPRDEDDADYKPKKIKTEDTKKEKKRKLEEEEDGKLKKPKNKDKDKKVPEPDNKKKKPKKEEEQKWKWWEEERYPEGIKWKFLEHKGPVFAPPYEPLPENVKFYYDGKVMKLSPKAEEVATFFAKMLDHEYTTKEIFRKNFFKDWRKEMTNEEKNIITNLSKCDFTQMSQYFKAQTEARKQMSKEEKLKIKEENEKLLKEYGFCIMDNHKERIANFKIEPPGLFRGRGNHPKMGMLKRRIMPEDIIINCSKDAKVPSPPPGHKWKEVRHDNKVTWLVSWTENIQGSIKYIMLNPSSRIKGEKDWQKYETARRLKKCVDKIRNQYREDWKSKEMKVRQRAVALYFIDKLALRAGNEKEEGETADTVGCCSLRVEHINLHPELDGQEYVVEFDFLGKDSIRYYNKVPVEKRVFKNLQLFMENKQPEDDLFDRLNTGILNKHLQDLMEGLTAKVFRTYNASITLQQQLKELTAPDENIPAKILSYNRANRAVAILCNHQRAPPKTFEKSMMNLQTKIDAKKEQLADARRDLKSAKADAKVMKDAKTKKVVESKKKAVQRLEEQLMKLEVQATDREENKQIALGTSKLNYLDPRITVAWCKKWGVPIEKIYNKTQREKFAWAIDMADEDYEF

[14] = target: T2, E. coli DNA topoisomerase IV; assay: ATP hydrolysis activity of E. coli DNA topoisomerase IV; assay type: biochemical; conditions: 100 µM
Procedure: as §1

E. coli topoisomerase IV = E. coli topoisomerase IV (Escherichia coli (strain K12), UniProt P0AFI2+P20083); assay: E. coli topoisomerase IV decatenation; assay type: biochemical; conditions: read-out: IC50 against E. coli topoisomerase IV
Sequence of E. coli topoisomerase IV (P0AFI2 whole entry, looked up): as the sequence (P0AFI2 whole entry, looked up) above
Sequence of E. coli topoisomerase IV (P20083 whole entry, looked up): as the sequence (P20083 whole entry, looked up) above

E. coli imp [15] = assay: microbe, parasite or virus in culture; conditions: Escherichia coli, read-out: MIC E. coli imp BAS3023
Procedure: as §2

E. coli imp [16] = tested on: E. coli imp
Procedure: as §2

[17] = SDFQ-based, three independent experiments, read-out: IC50 against E. coli DNA gyrase
[18] = IC50 against E. coli DNA gyrase
[19] = ATCC6633, read-out: Minimum Inhibitory Concentration B.subtilis
[20] = IC50 (µM) EC, Table 5, E. coli gyrase
[21] = ATCC14775, read-out: MIC (µM) SA
[22] = ATCC14775, read-out: Minimum Inhibitory Concentration S.aureus
[23] = MRSA, read-out: Minimum Inhibitory Concentration S.aureus MRSA

| Molecule | IC50 (E. coli DNA gyrase [2]; [17]) | IC50 (E. coli DNA gyrase [3]; [18]) | inhibition of human DNA topoisomerase IIα [4] | E. coli DNA gyrase-mediated DNA breaks and nicking (E. coli DNA gyrase [5]) | human topoisomerase 2α-mediated DNA nicks and double-stranded breaks [6] | MIC (B. subtilis (ATCC 6633); [19]) | inhibition of E. coli DNA gyrase activities (E. coli DNA gyrase [1]; 50 µM of compounds) | IC50 (E. coli DNA gyrase [3]; [20]) | inhibition of Mtb DNA gyrase activities (Mtb DNA gyrase) | IC50 (Mtb DNA gyrase) | IC50 [4] | activity against Mtb (Mtb) | inhibition at 20 µM (Mtb) | cytotoxicity J774 (J774) | IC50 (in vitro [7]) | IC50 (in vitro [8]) | MIC (S. aureus (ATCC 14775); [21]) | MIC (S. aureus (ATCC 14775); [22]) | MIC (MRSA; MRSA, read-out: MIC (µM) MRSA) | MIC (MRSA; [23]) | further results |
| --- | --- | --- | --- | --- | --- | --- | --- | --- | --- | --- | --- | --- | --- | --- | --- | --- | --- | --- | --- | --- | --- |
| CC(OC(=O)c1cc(O)c2ccccc2c1O)C(=O)Nc1ccc(C(N)=O)cc1 (stereo not drawn) [Compound 40, 1-[(4-carbamoylphenyl)carbamoyl]ethyl 1,4-dihydroxynaphthalene-2-carboxylate] | 47.6 ± 3.7 µM | 50 µM | does not inhibit | causes DNA gyrase-mediated double stranded DNA breaks and DNA nicking; also recorded: causes gyrase-mediated DNA double-stranded breaks and single-stranded nicks | does not cause | 100 µM (≈ 39.4 µg/mL) |  |  |  |  |  |  |  |  |  |  |  |  |  |  | inhibition of E. coli DNA gyrase activities (E. coli DNA gyrase [1]; 200 µM of compounds): completely inhibited; IC50 (E. coli DNA gyrase [3]; IC50 (50-200 µM), bin of Table 2): 50 to 200 µM; anti Bacillu subtilis activities (B. subtilis (ATCC 6633)): 39 µg/mL |
| Cc1c(CCC(=O)O)c(=O)oc2c(C)c3occ(-c4ccc(-c5ccccc5)cc4)c3cc12 [Compound 119] |  |  |  |  |  |  | completely inhibited | 7.7 µM | potent Mtb gyrase inhibitors | 16 µM | 133 µM | most active | 70.4% | no cytotoxicity | > 200 µM | > 200 µM | 0.8 µM (≈ 0.351 µg/mL) | 0.78 µM (≈ 0.342 µg/mL) | 0.8 µM | 0.78 µM |  |
| Cc1c(CCC(=O)O)c(=O)oc2c(C)c3occ(-c4ccc5ccccc5c4)c3cc12 [Compound 124] |  |  |  |  |  |  | completely inhibited | 5.5 µM | potent Mtb gyrase inhibitors | 3 µM | 117 µM | most active | 80.4% | no cytotoxicity | > 200 µM | > 200 µM | 1.6 µM (≈ 0.66 µg/mL) | 1.56 µM (≈ 0.643 µg/mL) | 1.6 µM | 1.56 µM |  |
| N=C(N)Nc1nc(-c2ccccc2)c2cc(Cl)ccc2n1 [Compound 154, N-(6-chloro-4-phenylquinazolin-2-yl)guanidine] | 3.1 ± 0.7 µM | 7 µM |  | causes the gyrase-mediated DNA double-stranded breaks and single-stranded nicks | causes the human topoisomerase 2a-mediated DNA nicks and double-stranded breaks | 25 µM (≈ 7.44 µg/mL) | completely inhibited |  |  |  | ~50 µM |  |  |  |  |  |  | 25 µM (≈ 7.44 µg/mL) |  | 25 µM | inhibition of E. coli DNA topoisomerase IV [9]: inhibits; MIC (E. coli (ATCC 25922); ATCC25922, read-out: Minimum Inhibitory Concentration E. coli, Tables 3a-3c): 50 µM (≈ 14.9 µg/mL) |
| O=C(O)c1cc(O)c(O)c(OC(=O)c2cc(O)c(O)c(O)c2)c1 [Digallic acid, digallic acid] |  |  | do not inhibit; also recorded: did not strongly inhibit | not bacterial DNA gyrase poisons |  |  |  |  |  |  |  |  |  |  |  |  |  |  |  |  | IC50 (E. coli DNA gyrase [1]; gel-based, read-out: IC50 against E. coli DNA gyrase): 2 µM; IC50 (E. coli DNA gyrase [2]; Table 8, read-out: IC50 Gyrase SDFQ): 1.9 µM; inhibition of the ATPase activities of E. coli DNA gyrase (E. coli DNA gyrase [10]; AB-MECA and gallates at 100 µM): competitive inhibitor; Ki (E. coli DNA gyrase [10]; ATPase, ATP competitive, read-out: Ki): 0.347 µM; inhibition of E. coli DNA topoisomerase I [11]: do not inhibit; also recorded: did not strongly inhibit; IC50 ([9]; IC50 Topoisomerase IV Gel-based, Table 8): 8 µM; IC50 ([9]; IC50 against E. coli DNA topoisomerase IV, relaxation): ~8 µM; IC50 [12]: 7.3 µM; inhibition of human DNA topoisomerase I [13]: do not inhibit; also recorded: did not strongly inhibit; inhibition of the ATPase activities of bacterial DNA topoisomerase IV [14]: inhibit the ATPase activities; IC50 (E. coli topoisomerase IV): ~4 µM; MIC (E. coli imp [15]): > 200 µM; MIC (E. coli (ATCC 25922); ATCC25922, read-out: MIC E coli ATCC 25922, Table 9): > 200 µM; MIC (S. aureus (ATCC 14775); ATCC14775, read-out: MIC S. aureus ATCC 14775): 64 µg/mL and 200 µM; MIC (MRSA; ATCC33591 / MRSA, read-out: MIC MRSA ATCC 33591): 200 µM; MIC (MRSA; ATCCBAA44 / MRSA, read-out: MIC S. aureus (MRSA) ATCC BAA44): 64 µg/mL; MIC (B. subtilis (ATCC 6633); ATCC6633, read-out: MIC B. subtilis ATCC 6633): > 64 µg/mL and > 200 µM |
| biphenyl gallate |  |  |  |  |  |  |  |  |  |  |  |  |  |  |  |  |  |  |  |  | MIC E. coli imp (E. coli imp [16]; Table 7): 36.43 µg/mL; MIC E. coli imp BAS3023 (E. coli imp [16]; Table 9): 200 µM; MIC E coli ATCC 25922 (E. coli (ATCC 25922)): >200 µM; MIC E. coli ATCC 25922 (E. coli (ATCC 25922)): 517.29 µg/mL; MIC S. aureus ATCC 14775 (S. aureus (ATCC 14775)): 16 µg/mL and 50 µM; MIC MRSA ATCC 33591 (MRSA): 50 µM; MIC S. aureus (MRSA) ATCC BAA44 (MRSA): 16 µg/mL; MIC B. subtilis ATCC 6633 (B. subtilis (ATCC 6633)): 16 µg/mL and 50-100 µM |

— US20230364057A1, “BACTERIAL DNA GYRASE INHIBITORS AND METHODS OF USE THEREOF” (THE FLORIDA INTERNATIONAL UNIVERSITY BOARD OF TRUSTEES, priority 2022, published 2023)
